The values that follow come from patent publication US20040142993A1, “Inhibitors of HCV NS5B polymerase” (priority 2002, published 2004).

Counter-ions that a name gives are not always drawn. Where only a bound is given, the exact number is not on record here.

Sequence of HCV NS5b RNA dependent RNA polymerase (P27958 2421-3011): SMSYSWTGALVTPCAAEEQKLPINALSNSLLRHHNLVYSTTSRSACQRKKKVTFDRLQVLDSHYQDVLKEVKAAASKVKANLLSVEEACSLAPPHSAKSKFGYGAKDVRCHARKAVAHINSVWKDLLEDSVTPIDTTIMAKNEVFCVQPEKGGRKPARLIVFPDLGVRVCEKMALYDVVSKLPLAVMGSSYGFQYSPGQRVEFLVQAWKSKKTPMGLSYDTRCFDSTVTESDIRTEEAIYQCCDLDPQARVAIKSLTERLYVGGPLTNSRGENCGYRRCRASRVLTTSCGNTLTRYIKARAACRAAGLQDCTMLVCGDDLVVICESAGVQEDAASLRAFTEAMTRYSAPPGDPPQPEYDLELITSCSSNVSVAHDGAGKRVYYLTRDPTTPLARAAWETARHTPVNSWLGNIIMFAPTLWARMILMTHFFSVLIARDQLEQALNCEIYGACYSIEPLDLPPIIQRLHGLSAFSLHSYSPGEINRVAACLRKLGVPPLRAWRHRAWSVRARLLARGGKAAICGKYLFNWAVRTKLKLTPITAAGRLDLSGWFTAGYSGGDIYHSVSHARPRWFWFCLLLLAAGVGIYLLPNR

For this assay, the target named is HCV NS5b RNA dependent RNA polymerase (Hepatitis C virus genotype 1a, UniProt P27958). The experiment in a line: Inhibition of HCV NS5b RNA dependent RNA polymerase activity (incorporation of 3H labeled GTP, scintillation proximity). Type of assay: biochemical. To be noted: HCV NS5b polymerase assay; read-out: concentration for 50% inhibition (inhibitory activity, Table 2). Here is the method:
Compounds of the present invention are evaluated for inhibition of HCV NS5b RNA dependent RNA polymerase activity in assays comprised of a suitable buffer (e.g. 20 mM Tris-HCl pH 7.6), primed or unprimed RNA templates, GTP, ATP, CTP, and UTP, MnCl2 or MgCl2, and reducing agent such as 10 mM dithiothreitol or 2-mercaptoethanol. The assay buffer may contain salts such as ammonium acetate, KCl, or NaCl, and nonionic or zwitterionic detergents such as Tween or CHAPS. The incorporation of nucleotides into the complementary RNA strand may be monitored by the incorporation of radiolabeled NTP (e.g. ^3H labeled GTP). Suitable RNA templates for de novo initiation in the presence of 20-50 μM GTP or ATP are the homopolymers poly rC and poly rU, respectively. Heteropolymer RNA templates with 1-3 cytidine (C) bases or 1-3 uridine (U) bases at the 3′ terminus of the template may also be used for de novo initiation. Primed RNA templates such as poly rC primed with oligo rG or oligo dG, and poly rA primed with oligo rU may also be used to detect polymerase activity. The primers may be any length greater than 10 bases. A biotin residue may be added to the 5′ end of the template or the 5′ end of the primer to capture the template and the newly synthesized, complementary strand on avidin coated spheres. One embodiment of this technology consists of a mixture of NS5b polymerase, a poly rC RNA template primed with 5′ biotinylated oligo rG, 20 mM Tris HCl pH 7.6, 100 mM ammonium acetate, 10 mM dithiothreitol, 2 mM CHAPS, 1 mM MgCl2, and 150-200 nM ^3H labeled GTP. Test compounds (inhibitors) may be incorporated in the reaction mixture with up to 10% DMSO. The reaction is run for various times (1-180 minutes) at 22-37° C., and stopped by the addition of 10-140 mM EDTA. Scintillation Proximity Assay avidin-coated beads (Amersham Pharmacia Biotech) are added to capture the ds RNA product; or the reaction mixtures may be transferred to avidin coated Flash Plates (Perkin Elmer Life Sciences). The incorporation of radiolabeled GTP into the complementary strand is measured in 96, 384, or 1536 well plates in scintillation counters such as the Wallac Microbeta and Packard TopCount.
(In general: Scintillation proximity formats need no separation of bound from free tracer.)
With `NCc1ccc(Nc2ccc(C(F)(F)F)cc2Nc2ccccc2C(=O)O)c(C(=O)O)c1` [xxiv, 5-(aminomethyl)-2-{[2-[(2-carboxyphenyl)amino]-4-(trifluoromethyl)phenyl]amino}benzoic acid hydrochloride], the IC50 is less than 1 µM.
`N[C@@H](Cc1ccccc1)C(=O)NCc1ccc(Nc2cc(C(F)(F)F)ccc2Nc2ccccc2C(=O)O)c(C(=O)O)c1` [xviii, N-(3-carboxy-4-{[2-[(2-carboxyphenyl)amino]-5-(trifluoromethyl)phenyl]amino}benzyl)-L-phenylalaninamide chloride]: the IC50 is more than 20 µM.
As for `c1ccc(Nc2ccccc2-c2nnn[nH]2)c(Nc2ccccc2-c2nnn[nH]2)c1` [lv, N,N′-bis[2-(1H-tetrazol-5-yl)phenyl]benzene-1,2-diamine, disodium salt], the figure is 1 to 20 µM.
Then `Cc1ccc(Nc2ccccc2C(=O)O)c(Nc2ccccc2C(=O)O)c1` [xl, 2-({2-[(2-carboxyphenyl)amino]-4-methylphenyl}amino)benzoic acid], with 1 to 20 µM.
For `NCc1ccc(Nc2cc(C(F)(F)F)ccc2Oc2ccccc2C(=O)O)c(C(=O)O)c1` [xxv, 5-(aminomethyl)-2-{[2-(2-carboxyphenoxy)-5-(trifluoromethyl)phenyl]amino}benzoic acid hydrochloride], the IC50 is more than 20 µM.
Consider `NCCc1ccc(Nc2cc(C(F)(F)F)ccc2Nc2ccccc2C(=O)O)c(C(=O)O)c1` [xxxviii, 5-(2-aminoethyl)-2-{[2-[(2-carboxyphenyl)amino]-5-(trifluoromethyl)phenyl]amino}benzoic acid hydrochloride], for which the IC50 was less than 1 µM.
Then `O=C(O)c1ccccc1Nc1ccc(C(F)(F)F)cc1Nc1ccc(CN2CCCC2)cc1C(=O)O` [xxx, 2-{[2-[(2-carboxyphenyl)amino]-5-(trifluoromethyl)phenyl]amino}-5-(pyrrolidin-1-ylmethyl)benzoic acid], with 1 to 20 µM; and “5-(aminomethyl)-2-{[2-[(2-carboxyphenyl)thio]-5-(trifluoromethyl)phenyl]amino}benzoic acid [xii]”, with 1 to 20 µM.
As for `COc1ccc(Nc2ccccc2Nc2ccccc2C(=O)O)c(C(=O)O)c1` [lx, 2-({2-[(2-carboxyphenyl)amino]phenyl}amino)-5-methoxybenzoic acid], the figure is more than 20 µM; as for `O=C(O)c1ccccc1Nc1cc(C(F)(F)F)ccc1Oc1ccccc1C(=O)O` [lxv, 2-{[2-(2-carboxyphenoxy)-5-(trifluoromethyl)phenyl]amino}benzoic acid], 1 to 20 µM.
Consider `O=C(O)c1ccccc1Nc1ccccc1Nc1cc(F)c(F)cc1C(=O)O` [lvii, 2-({2-[(2-carboxyphenyl)amino]phenyl}amino)-4,5-difluorobenzoic acid], for which the IC50 was in the range of 1 to 20 µM.
For the compound `NCCc1ccc(Nc2ccc(C(F)(F)F)cc2Nc2ccccc2C(=O)O)c(C(=O)O)c1` [xxvii, 5-(2-aminoethyl)-2-{[2-[(2-carboxyphenyl)amino]-4-(trifluoromethyl)phenyl]amino}benzoic acid hydrochloride], the IC50 was less than 1 µM.
As for `O=C(O)c1ccccc1Nc1ccc(F)cc1Nc1ccccc1C(=O)O` [lii, 2-({2-[(2-carboxyphenyl)amino]-4-fluorophenyl}amino)benzoic acid], the IC50 was in the range of 1 to 20 µM.
As for `N#Cc1ccc(Nc2ccc(C(F)(F)F)cc2Nc2ccccc2C(=O)O)c(C(=O)O)c1` [xvi, 2-{[2-[(2-carboxyphenyl)amino]-4-(trifluoromethyl)phenyl]amino}-5-cyanobenzoic acid], the figure is 1 to 20 µM.
For `O=C(O)c1ccccc1Nc1ccccc1Nc1cc(F)ccc1C(=O)O` [lix, 2-({2-[(2-carboxyphenyl)amino]phenyl}amino)-4-fluorobenzoic acid], the IC50 was more than 20 µM.
Regarding `O=C(O)c1ccccc1Nc1ccccc1Nc1ccccc1C(=O)O` [lviii], the IC50 is more than 20 µM.
Then `O=C(O)c1ccccc1Nc1ccc(C(F)(F)F)cc1Nc1ccccc1C(=O)O` [xxxi, 2-{[2-[(2-carboxyphenyl)amino]-4-(trifluoromethyl)phenyl]amino}benzoic acid], with less than 1 µM; and `N#Cc1ccc(Nc2ccccc2Nc2ccccc2C(=O)O)c(C(=O)O)c1` [li, 2-({2-[(2-carboxyphenyl)amino]phenyl}amino)-5-cyanobenzoic acid], with 1 to 20 µM.
